The target of the assay is T1, C-C chemokine receptor type 6 (Homo sapiens, UniProt P51684).
T1 sequence (P51684 whole entry): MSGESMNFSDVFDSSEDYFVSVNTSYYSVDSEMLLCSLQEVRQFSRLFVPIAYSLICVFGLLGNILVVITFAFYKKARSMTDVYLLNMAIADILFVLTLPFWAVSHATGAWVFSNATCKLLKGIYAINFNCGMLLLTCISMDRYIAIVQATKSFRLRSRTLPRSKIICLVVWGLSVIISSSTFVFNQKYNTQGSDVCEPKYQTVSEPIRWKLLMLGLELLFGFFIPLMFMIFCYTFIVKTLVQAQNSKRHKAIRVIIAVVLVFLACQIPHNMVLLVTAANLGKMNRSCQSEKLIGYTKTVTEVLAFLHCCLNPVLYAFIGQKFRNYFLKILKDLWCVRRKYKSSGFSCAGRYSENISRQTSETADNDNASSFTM
Kind of assay: CCR6 receptor antagonists, dose response, cell-based, luminescent beta-arrestin readout (AID 504728).

In BindingDB's records for doi:10.7270/Q20P0XHD (Burnham Center For Chemical Genomics, 2011) one finds IC50 data, which are given here for 19 compounds.

Broadly, the IC50 is the point on the concentration scale where inhibition reaches its midpoint. Low values mean inhibition by little substance, high ones a need for much substance. On to `CC(NO)C(=O)C(=CN1CCCCC1)CN1CCCCC1` (centres undefined), for which the IC50 is greater than 66.6 µM.
In the case of `Cc1cc(C)nc(NNC=C2C(=O)CC(c3ccc(F)cc3)CC2=O)n1` (centres undefined) it was greater than 66.6 µM; in that of `O=C1Nc2ccc([N+](=O)[O-])cc2/C1=N/NC(=O)c1cc(-c2ccccc2Cl)nc2ccccc12` [2-(2-chlorophenyl)-N'-(2-keto-5-nitro-indol-3-yl)cinchoninohydrazide], greater than 66.6 µM.
Regarding `COC1=CC=CC(CN=Nc2nc(Nc3ccc([N+](=O)[O-])cc3)nc(N3CCCC3)n2)C1=O` (centres undefined) [2-hydroxy-3-methoxybenzaldehyde {4-[(4-nitrophenyl)amino]-6-pyrrolidin-1-yl-1,3,5-triazin-2-yl}hydrazone], the IC50 was 1.64 µM.
Regarding `O=Nc1c(C2C(=O)Nc3cc(Br)ccc32)[nH]c2ccccc12` (centres undefined) [6-bromoindirubin-3-oxime], the IC50 is greater than 66.6 µM.
In turn, `O=C1C([N+](=O)[O-])=CC=CC1CN=Nc1ccc2ccccc2n1` (centres undefined) [(6E)-2-nitro-6-[(2-quinolin-2-ylhydrazinyl)methylidene]cyclohexa-2,4-dien-1-one] came in with an IC50 greater than 66.6 µM.
`COc1cccc(CN=Nc2nc(Nc3ccccc3)nc(-n3nc(C)cc3C)n2)c1O` [(6E)-6-[[2-[4-(3,5-dimethylpyrazol-1-yl)-6-phenylazanyl-1,3,5-triazin-2-yl]hydrazinyl]methylidene]-2-methoxy-cyclohexa-2,4-dien-1-one]: the IC50 is greater than 66.6 µM.
Compound `CN(C)c1nc(N=NCc2ccccc2O)nc(Nc2ccc(F)cc2)n1` [(6E)-6-[[2-[4-(dimethylamino)-6-(4-fluoroanilino)-1,3,5-triazin-2-yl]hydrazinyl]methylidene]cyclohexa-2,4-dien-1-one] showed an IC50 greater than 66.6 µM.
The compound `O=C1C([N+](=O)[O-])=CC(Cl)=CC1CN=Nc1ccccn1` (centres undefined) [MLS000539830] came in with an IC50 greater than 66.6 µM.
The compound `O=C1C=CC([N+](=O)[O-])=CC1CN=Nc1ccccn1` (centres undefined) [MLS000585015] returned an IC50 greater than 66.6 µM.
The compound `C/C=C(\C)C(=O)OC1[C@H](OC(C)=O)C2(CO)C(CC1(C)C)C1=CCC3C4(C)CCC(O[C@@H]5O[C@H](C(=O)O)[C@@H](O[C@@H]6O[C@H](CO)[C@@H](O)[C@H](O)[C@H]6O)[C@H](O)[C@H]5O[C@H]5O[C@H](CO)[C@@H](O)[C@H](O)[C@H]5O)[C@](C)(CO)C4CCC3(C)[C@]1(C)C[C@H]2O` (some centres undefined) [MLS002695979] registered an IC50 of 16.4 µM.
As to `C=CCSC(N)=NN=CC1C=C(Br)C=C([N+](=O)[O-])C1=O` (centres undefined) [N''-[[(E)-(3-bromo-5-nitro-6-oxo-1-cyclohexa-2,4-dienylidene)methyl]amino]carbamimidothioic acid prop-2-enyl ester], the IC50 is greater than 66.6 µM.
For `O=C1C(/C=N/c2ccc(N3CCOCC3)cc2)=CC(Cc2ccccc2)C=C1[N+](=O)[O-]` (centres undefined) [SMR000231104], the IC50 was greater than 66.6 µM.
`CCCC1CCC(=NNC(=S)NCCc2ccccc2)CC1` (centres undefined) [SMR000347544] gave an IC50 greater than 66.6 µM.
`CC(C)(C)C1CCC(=NNC(=S)NCc2ccccc2)CC1` (centres undefined) [SMR000377499] returned an IC50 greater than 66.6 µM.
On to `COc1ccc(-n2c(O)c(CN=Nc3nc(C)cc(C)n3)c3ccccc3c2=O)cc1OC` [SMR000385482], for which the IC50 was 0.594 µM.
The figure for `Cc1cc(N=NCc2ccc(F)cc2)nc(-n2nc(C)cc2C)n1` [SMR000426945] is greater than 66.6 µM.
In the case of `CN1C(=O)C(C2CC(c3ccc(Cl)cc3)N=N2)C(=O)N(C)C1=O` (centres undefined) [SMR000439471], the IC50 turned out to be 14.9 µM.
As to `N#CC(=C1C=CC(N=O)C(Cl)=C1)c1ccc(Cl)cc1` (centres undefined) [SMR001570423], the IC50 is greater than 66.6 µM.
